Starred links: 1 amine or outer side, 2 acyl side, 3 side chain; linkers in the order of their positions; H or OH if unused. Positions of bridges follow the written chain, without caps; N, C: chain ends. Non-standard residues stand in square brackets, D forms with d. Residues, ends and D or L forms follow the SMILES beside them. NMeF = CN[C@@H](Cc1ccccc1)C(=O)O; 3Pal = N[C@@H](Cc1cccnc1)C(=O)O; NMeN = CN[C@@H](CC(N)=O)C(=O)O; Suc = O=C(CCC(=O)[*:2])[*:1]; NMeS = CN[C@@H](CO)C(=O)O; Nle = CCCC[C@H](N)C(=O)O
What was measured:
[1] = system: thrombin generation in human platelet poor plasma with skeletal muscle myosin; experiment: Assay 2A: thrombin generation, recalcification of human platelet poor plasma + myosin; assay type: biochemical; details: human platelet poor plasma 30%, myosin 50 nM, CaCl2 10 mmol/L; read-out: 2A (recalcification +myosin)
Procedure: Activities of the various peptides and derivative compounds were also examined via assays using recalcification of human plasma. [One of] these assay format (2A) involves monitoring thrombin generation in platelet poor plasma (PPP). Specifically, pooled normal human platelet poor plasma (PPP) (obtained from George King Bio Medical Inc., Overland Park, Kans.) (30%) was incubated with skeletal muscle myosin at 50 nM in the presence of peptide in DMSO or DMSO alone for 5 min at 37° C. Then, fluorogenic thrombin substrate solution (Z-Gly-Gly-Arg-AMC) (I-1140) with CaCl2 (10 mmol/L final) alone was added to the reaction mixture (total 110 μl) to initiate coagulation. Thrombin generation was followed continuously for 25 min using SPECTRAmax GEMINI XS fluorometer (Molecular Devices, Sunnyvale, Calif.) with excitation and emission wavelengths set at 360 and 460 nm, respectively. The first derivative of fluorescence versus time was used to produce thrombin generation curves with the correction for substrate consumption and inner filter effect. For this assay 96 well plate (total 110 μL) or 384 well plates (total 30 μL) were used.
Activities obtained from Assay 2A (recalcification of human plasma in the presence of myosin) were used to rank the various peptides listed in Table 3. As noted above, this assay monitors recalcification of plasma to stimulate thrombin generation. In this assay, potency of the compounds was determined as the peptide concentration for 50% inhibition of thrombin generation, defined as “IC50”.

[2] = target: skeletal muscle myosin-supported prothrombin activation by factors Xa and Va (Homo sapiens, UniProt P00742); experiment: Assay 1A: prothrombin activation by factor Xa/factor Va/myosin in purified system; assay type: biochemical, human factors Xa and Va; rabbit skeletal muscle myosin; details: purified system; skeletal muscle myosin, factor Va 5 nM, factor Xa 0.2 nM, prothrombin 0.75 μM, 10 min; read-out: 1A (+myosin)
skeletal muscle myosin-supported prothrombin activation by factors Xa and Va (Homo sapiens, UniProt P00742), sequence (P00742 41-179): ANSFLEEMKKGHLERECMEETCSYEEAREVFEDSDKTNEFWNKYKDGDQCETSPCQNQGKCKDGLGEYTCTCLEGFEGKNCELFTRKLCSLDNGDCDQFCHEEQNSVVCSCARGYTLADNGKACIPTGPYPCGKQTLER
skeletal muscle myosin-supported prothrombin activation by factors Xa and Va (Homo sapiens, UniProt P00742), sequence (P00742 235-488): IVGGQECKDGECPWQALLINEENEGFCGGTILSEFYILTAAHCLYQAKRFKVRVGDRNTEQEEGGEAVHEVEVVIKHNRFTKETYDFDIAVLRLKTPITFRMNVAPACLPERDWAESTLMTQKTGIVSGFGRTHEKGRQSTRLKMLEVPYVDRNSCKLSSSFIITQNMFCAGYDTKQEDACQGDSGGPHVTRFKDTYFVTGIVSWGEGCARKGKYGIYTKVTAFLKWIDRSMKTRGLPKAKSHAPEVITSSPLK
skeletal muscle myosin-supported prothrombin activation by factors Xa and Va (Homo sapiens, UniProt P00742), sequence (P12259 29-737 partner): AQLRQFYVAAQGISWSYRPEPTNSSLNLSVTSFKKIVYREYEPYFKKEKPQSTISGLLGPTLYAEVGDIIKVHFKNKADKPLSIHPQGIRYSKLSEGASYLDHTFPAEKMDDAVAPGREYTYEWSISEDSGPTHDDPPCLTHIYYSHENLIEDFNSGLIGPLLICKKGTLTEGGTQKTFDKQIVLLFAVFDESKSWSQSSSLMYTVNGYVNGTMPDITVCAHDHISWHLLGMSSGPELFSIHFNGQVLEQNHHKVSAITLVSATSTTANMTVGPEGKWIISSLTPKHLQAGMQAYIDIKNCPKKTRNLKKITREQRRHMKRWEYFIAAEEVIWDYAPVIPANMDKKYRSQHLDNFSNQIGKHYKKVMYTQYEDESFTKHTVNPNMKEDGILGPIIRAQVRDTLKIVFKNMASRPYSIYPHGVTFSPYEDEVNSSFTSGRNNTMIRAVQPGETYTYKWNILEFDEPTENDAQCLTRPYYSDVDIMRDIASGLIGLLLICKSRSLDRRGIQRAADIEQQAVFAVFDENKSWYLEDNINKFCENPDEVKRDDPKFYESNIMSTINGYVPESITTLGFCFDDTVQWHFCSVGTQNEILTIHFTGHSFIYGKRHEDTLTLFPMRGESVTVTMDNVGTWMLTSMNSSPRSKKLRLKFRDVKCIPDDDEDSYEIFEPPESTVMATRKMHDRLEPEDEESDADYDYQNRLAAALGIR
skeletal muscle myosin-supported prothrombin activation by factors Xa and Va (Homo sapiens, UniProt P00742), sequence (P12259 1574-2224 partner): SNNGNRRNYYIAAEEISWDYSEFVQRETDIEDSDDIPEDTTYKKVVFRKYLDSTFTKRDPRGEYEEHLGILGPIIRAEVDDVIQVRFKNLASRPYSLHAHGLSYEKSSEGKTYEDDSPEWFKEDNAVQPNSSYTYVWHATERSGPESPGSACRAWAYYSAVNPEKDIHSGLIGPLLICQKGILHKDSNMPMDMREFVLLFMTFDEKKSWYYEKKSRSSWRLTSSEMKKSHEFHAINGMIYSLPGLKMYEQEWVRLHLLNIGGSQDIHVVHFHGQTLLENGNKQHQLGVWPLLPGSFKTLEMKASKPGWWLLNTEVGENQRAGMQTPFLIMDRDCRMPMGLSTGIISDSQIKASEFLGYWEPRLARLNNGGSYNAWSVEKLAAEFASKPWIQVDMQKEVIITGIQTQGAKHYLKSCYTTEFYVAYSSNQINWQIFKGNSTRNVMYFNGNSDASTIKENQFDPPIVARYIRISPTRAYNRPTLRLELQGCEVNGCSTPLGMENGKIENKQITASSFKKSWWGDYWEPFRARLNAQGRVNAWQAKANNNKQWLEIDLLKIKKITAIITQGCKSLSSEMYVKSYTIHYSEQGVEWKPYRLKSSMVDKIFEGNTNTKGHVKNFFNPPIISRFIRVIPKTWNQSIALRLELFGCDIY

[3] = system: skeletal muscle myosin-supported prothrombin activation by factors Xa and Va; experiment: as above; assay type: biochemical, human factors Xa and Va; rabbit skeletal muscle myosin
[4] = target: phospholipid-supported prothrombin activation by factors Xa and Va (Homo sapiens, UniProt P00742); experiment: Assay 1C: phospholipid vesicle (PC/PS 80%/20%)-supported prothrombin activation; assay type: biochemical; details: PC/PS vesicles 4 μM; read-out: IC50, phospholipid vesicles containing 20% phosphatidylserine-supported prothrombin activation
phospholipid-supported prothrombin activation by factors Xa and Va, sequence (P00742 41-179 limits assumed): as the sequence (P00742 41-179) above
phospholipid-supported prothrombin activation by factors Xa and Va, sequence (P00742 235-488 limits assumed): as the sequence (P00742 235-488) above

| Compound | IC50 [1] [µM] | IC50 [2] [µM] | further results |
| --- | --- | --- | --- |
| CCCC[C@H](NC(=O)[C@H](Cc1c[nH]c2ccccc12)NC(=O)[C@@H]1CCCN1C(=O)[C@H](Cc1c[nH]c2ccccc12)NC(=O)[C@H](Cc1c[nH]cn1)NC(=O)[C@H](CCCCN)NC(=O)[C@@H](NC(=O)[C@H](CC(N)=O)NC(=O)[C@H](CCCC)NC(=O)[C@H](Cc1ccccc1)NC(=O)[C@H](CO)NC(=O)[C@H](CCCNC(=N)N)NC(=O)[C@@H](NC(=O)[C@H](CC(N)=O)NC(=O)[C@H](Cc1ccc(O)cc1)NC(=O)[C@H](CCC(N)=O)NC(=O)[C@@H](NC(=O)[C@H](CS)NC(=O)[C@H](Cc1cccnc1)NC(=O)[C@@H](NC(=O)[C@H](C)N)[C@@H](C)CC)[C@@H](C)CC)[C@@H](C)CC)C(C)C)C(=O)N[C@@H](CCCCN)C(N)=O [HC178] (H-AI[3Pal]CIQYNIRSF[Nle]NVKHWPW[Nle]K-NH2; N-terminus assumed) | 13 | 1.7 | – |
| CCCC[C@H](NC(=O)[C@H](Cc1c[nH]c2ccccc12)NC(=O)[C@@H]1CCCN1C(=O)[C@H](Cc1c[nH]c2ccccc12)NC(=O)[C@H](Cc1c[nH]cn1)NC(=O)[C@H](CCCCN)NC(=O)[C@@H](NC(=O)[C@H](CC(N)=O)NC(=O)[C@H](CCCC)NC(=O)[C@H](Cc1ccccc1)NC(=O)[C@H](CO)NC(=O)[C@H](CCCNC(=N)N)NC(=O)[C@@H](NC(=O)[C@H](CC(N)=O)NC(=O)[C@H](Cc1ccc(O)cc1)NC(=O)[C@H](CCC(N)=O)NC(=O)[C@@H](NC(=O)[C@H](CO)NC(=O)[C@H](Cc1ccccc1)NC(=O)[C@@H](NC(=O)[C@H](C)N)[C@@H](C)CC)[C@@H](C)CC)[C@@H](C)CC)C(C)C)C(=O)N[C@@H](CCCCN)C(N)=O [HC188] (H-AIFSIQYNIRSF[Nle]NVKHWPW[Nle]K-NH2; N-terminus assumed) | 10 | 0.59 | – |
| CCCC[C@H](NC(=O)[C@H](Cc1c[nH]c2ccccc12)NC(=O)[C@@H]1CCCN1C(=O)[C@H](Cc1c[nH]c2ccccc12)NC(=O)[C@H](Cc1c[nH]cn1)NC(=O)[C@H](CCCCN)NC(=O)[C@@H](NC(=O)[C@H](CC(N)=O)NC(=O)[C@H](CCCC)NC(=O)[C@H](Cc1ccccc1)NC(=O)[C@H](CO)NC(=O)[C@H](CCCNC(=N)N)NC(=O)[C@@H](NC(=O)[C@H](CC(N)=O)NC(=O)[C@H](Cc1ccc(O)cc1)NC(=O)[C@H](CCC(N)=O)NC(=O)[C@@H](NC(=O)[C@H](CO)N(C)C(=O)[C@H](Cc1ccccc1)NC(=O)[C@@H](NC(=O)[C@H](C)N)[C@@H](C)CC)[C@@H](C)CC)[C@@H](C)CC)C(C)C)C(=O)N[C@@H](CCCCN)C(N)=O [HC189] (H-AIF[NMeS]IQYNIRSF[Nle]NVKHWPW[Nle]K-NH2; N-terminus assumed) | 17 | 1.5 | – |
| CCCC[C@H](NC(=O)[C@H](Cc1c[nH]c2ccccc12)NC(=O)[C@@H]1CCCN1C(=O)[C@H](Cc1c[nH]c2ccccc12)NC(=O)[C@H](Cc1c[nH]cn1)NC(=O)[C@H](CCCCN)NC(=O)[C@@H](NC(=O)[C@H](CC(N)=O)NC(=O)[C@H](CCCC)NC(=O)[C@H](Cc1ccccc1)N(C)C(=O)[C@H](CO)NC(=O)[C@H](CCCNC(=N)N)NC(=O)[C@@H](NC(=O)[C@H](CC(N)=O)NC(=O)[C@H](Cc1ccc(O)cc1)NC(=O)[C@H](CCC(N)=O)NC(=O)[C@@H](NC(=O)[C@H](CS)NC(=O)[C@H](Cc1ccccc1)NC(=O)[C@@H](NC(=O)[C@H](C)N)[C@@H](C)CC)[C@@H](C)CC)[C@@H](C)CC)C(C)C)C(=O)N[C@@H](CCCCN)C(N)=O [HC198] (H-AIFCIQYNIRS[NMeF][Nle]NVKHWPW[Nle]K-NH2; N-terminus assumed) | 16 | 0.87 | – |
| CCCC[C@H](NC(=O)[C@H](Cc1c[nH]c2ccccc12)NC(=O)[C@@H]1CCCN1C(=O)[C@H](Cc1c[nH]c2ccccc12)NC(=O)[C@H](Cc1c[nH]cn1)NC(=O)[C@H](CCCCN)NC(=O)[C@@H](NC(=O)[C@H](CC(N)=O)N(C)C(=O)[C@H](CCCC)NC(=O)[C@H](Cc1ccccc1)NC(=O)[C@H](CO)NC(=O)[C@H](CCCNC(=N)N)NC(=O)[C@@H](NC(=O)[C@H](CC(N)=O)NC(=O)[C@H](Cc1ccc(O)cc1)NC(=O)[C@H](CCC(N)=O)NC(=O)[C@@H](NC(=O)[C@H](CS)NC(=O)[C@H](Cc1ccccc1)NC(=O)[C@@H](NC(=O)[C@H](C)N)[C@@H](C)CC)[C@@H](C)CC)[C@@H](C)CC)C(C)C)C(=O)N[C@@H](CCCCN)C(N)=O [HC199] (H-AIFCIQYNIRSF[Nle][NMeN]VKHWPW[Nle]K-NH2) | 5.8 to 10.2 | 0.46 | – |
| CC[C@H](C)[C@H](NC(=O)[C@H](CC(C)C)NC(=O)[C@H](CCC(N)=O)NC(=O)[C@H](C)NC(=O)[C@H](CC(C)C)NC(=O)[C@H](CCCCN)NC(=O)[C@H](CC(=O)O)NC(=O)[C@H](CC(=O)O)NC(=O)[C@H](CCCNC(=N)N)NC(=O)[C@H](CCSC)NC(=O)[C@@H](N)CCC(=O)O)C(=O)N[C@H](C(=O)N[C@@H](CCCNC(=N)N)C(=O)N[C@H](C(=O)N[C@@H](CCC(N)=O)C(=O)N[C@@H](C)C(=O)N[C@@H](CCCNC(=N)N)C(=O)N[C@@H](CS)C(=O)N[C@@H](CCCNC(=N)N)C(=O)NCC(=O)N[C@@H](Cc1ccccc1)C(=O)N[C@@H](CC(C)C)C(=O)N[C@@H](C)C(=O)N[C@@H](CCCNC(=N)N)C(=O)N[C@H](C(=O)N[C@@H](CCC(=O)O)C(=O)N[C@@H](Cc1ccc(O)cc1)C(=O)N[C@@H](CCC(N)=O)C(=O)N[C@@H](CCCNC(=N)N)C(=O)N[C@@H](CCSC)C(N)=O)C(C)C)[C@@H](C)O)[C@@H](C)O [HC781-810] (H-EMRDDKLAQLITRTQARCRGFLARVEYQRM-NH2) | – | – | IC50 ([3]; dose-dependency assays, FIG. 2A, myosin 2 nM, read-out: IC50, inhibition of myosin-supported prothrombin activation): 64 µM; inhibition of myosin-supported prothrombin activation at 5 μM ([3]; peptide 5 μM, FIG. 1A): inhibitory, to varying degrees; inhibition of myosin-supported prothrombin activation at 100 μM ([3]; peptide 100 μM, FIG. 1A): inhibited; IC50 [4]: 7.5 µM |

Continued, in another order:

| IC50 [1] [µM] | IC50 [2] [µM] | Compound | further results |
| --- | --- | --- | --- |
| 3.4 | – | CC[C@H](C)[C@H](NC(=O)[C@H](C)NC(=O)[C@H](CCC(=O)O)NC(=O)[C@H](CCCNC(=N)N)NC(=O)[C@H](CCCNC(=N)N)NC(=O)[C@H](CCC(=O)O)NC(=O)[C@@H]1CCCCNC(=O)CCC(=O)NCCCC[C@H](NC(=O)[C@H](C)NC(=O)[C@H](CC(C)C)NC(=O)[C@H](Cc2ccccc2)NC(=O)CNC(=O)[C@H](CCCNC(=N)N)NC(=O)[C@H](CS)NC(=O)[C@H](CCCNC(=N)N)NC(=O)[C@H](C)N)C(=O)N[C@@H](C(C)C)C(=O)N[C@@H](CCC(=O)O)C(=O)N[C@@H](Cc2ccc(O)cc2)C(=O)N[C@@H](CCC(N)=O)C(=O)N[C@@H](CCCNC(=N)N)C(=O)N[C@@H](CCSC)C(=O)N1)C(=O)N[C@@H](Cc1ccccc1)C(=O)N[C@H]1CCCCNC(=O)CCC(=O)NCCCC[C@@H](C(=O)N[C@@H](Cc2ccccc2)C(=O)N[C@@H](CCSC)C(=O)N[C@@H](CC(N)=O)C(=O)N[C@H](C(=O)N[C@@H](CCCCN)C(=O)N[C@@H](Cc2c[nH]cn2)C(=O)N[C@@H](Cc2c[nH]c3ccccc23)C(=O)N2CCC[C@H]2C(=O)N[C@@H](Cc2c[nH]c3ccccc23)C(N)=O)C(C)C)NC(=O)[C@H](CCCNC(=N)N)NC(=O)[C@H]([C@@H](C)CC)NC(=O)[C@H](CC(N)=O)NC(=O)[C@H](Cc2ccc(O)cc2)NC(=O)[C@H](CCC(N)=O)NC(=O)[C@H]([C@@H](C)CC)NC1=O [HC160] (H-ARCRGFLAKVEYQRMKERREAIFKIQYNIRKFMNVKHWPW-NH2; linker 9-16, 24-31 via Suc (inferred); N-terminus and C-terminus assumed) | – |
| 6.4 | – | CC[C@H](C)[C@H](NC(=O)[C@H](C)NC(=O)[C@H](CCC(=O)O)NC(=O)[C@H](CCCNC(=N)N)NC(=O)[C@H](CCCNC(=N)N)NC(=O)[C@H](CCC(=O)O)NC(=O)[C@@H]1CCCCNC(=O)CCC(=O)NCCCC[C@H](NC(=O)[C@H](C)NC(=O)[C@H](CC(C)C)NC(=O)[C@H](Cc2ccccc2)NC(=O)CNC(=O)[C@H](CCCNC(=N)N)NC(=O)[C@H](CS)NC(=O)[C@H](CCCNC(=N)N)NC(=O)[C@H](C)N)C(=O)N[C@@H](C(C)C)C(=O)N[C@@H](CCC(=O)O)C(=O)N[C@@H](Cc2ccc(O)cc2)C(=O)N[C@@H](CCC(N)=O)C(=O)N[C@@H](CCCNC(=N)N)C(=O)N[C@@H](CCSC)C(=O)N1)C(=O)N[C@@H](Cc1ccccc1)C(=O)N[C@@H](CS)C(=O)N[C@H](C(=O)N[C@@H](CCC(N)=O)C(=O)N[C@@H](Cc1ccc(O)cc1)C(=O)N[C@@H](CC(N)=O)C(=O)N[C@H](C(=O)N[C@@H](CCCNC(=N)N)C(=O)N[C@H]1CCCCNC(=O)CCC(=O)NCCCC[C@@H](C(=O)N2CCC[C@H]2C(=O)N[C@@H](Cc2c[nH]c3ccccc23)C(N)=O)NC(=O)[C@H](Cc2c[nH]cn2)NC(=O)[C@H](CCCCN)NC(=O)[C@H](C(C)C)NC(=O)[C@H](CC(N)=O)NC(=O)[C@H](CCSC)NC(=O)[C@H](Cc2ccccc2)NC1=O)[C@@H](C)CC)[C@@H](C)CC [HC161] (H-ARCRGFLAKVEYQRMKERREAIFCIQYNIRKFMNVKHKPW-NH2; linker 9-16, 31-38 via Suc (inferred); N-terminus and C-terminus assumed) | – |

Reference: patent US20220340629A1, “Myosin Derived Peptides and Related Compounds with Anticoagulant Activities” (THE SCRIPPS RESEARCH INSTITUTE, priority 0001, published 2022)
